Results on one compound are retold here after publication PMC6013238, “Development of novel NEMO-binding domain mimetics for inhibiting IKK/NF-κB activation” (PLoS Biology, 2018).

Several values for one entry are separate records, joined by “and”; a condition that tells them apart may be missing. Equal values may be shown once.

Data set [1] can be described thus: Hematological measures in acutely treated mice. Format: in vivo, mouse. The note with it: SR12343 30 mg/kg i.p. 30 min before LPS 10 mg/kg, 2 h; mean ± SD. Here is the method: To determine their NF-κB inhibitory effects in vivo, SR12343 and SR12460 were tested in an acute model of LPS-induced systemic endotoxemia. C57BL/6J mice were pretreated with vehicle control, 8K-NBD peptide, or NBD mimetics at 10 mg/kg for 30 min, followed by LPS induction at 10 mg/kg (Fig 6B). Lung and liver were harvested 2–4 h post treatment for qRT-PCR analysis of NF-κB target genes. […] Despite lower plasma and tissue concentrations of SR12343 compared to SR12460, its inhibition of NF-κB/IKK in liver and lung were greater than that of SR12460 (Fig 6C). Similarly, acute treatment with SR12343 also affected the LPS-induced expression of NF-κB target genes at protein level. The extent of phosphorylation of IκBα and the levels of COX-2 were reduced in lung and liver tissues treated with SR12343 (Fig 6D and 6E). […] However, no significant differences in lung histopathology were observed. Finally, there was a slight reduction in the number of white blood cells and neutrophils in the SR12343-treated group (Table 2).
Nine mice (male; C57BL/6, 9–13 wk) were randomly divided into 3 groups with 3 mice in each group. Mice were injected i.p. with vehicle (DMSO:Tween80:H2O, 10:10:80) or small-molecule SR12343 (30 mg/kg) for 30 min and then injected i.p. with saline (1 ml/kg) or LPS (10 mg/kg in saline). After 2 h, mice were euthanized by CO2 asphyxiation prior to blood sampling via cardiac puncture. The blood from each mouse was put into 2 collection tubes with coagulant or anticoagulant heparin (approximately 0.6 mL each). The samples in the tubes coated with the anticoagulant heparin were hand-mixed several times and placed on wet ice for hematological analysis using an automatic hematology analyzer (Hemavet 950FS; Drew Scientific, Miami Lakes, FL). Samples in tubes containing no anticoagulant were allowed to clot before centrifugation and submission for serum biochemical analysis using the VetScan VS2 Analyzer with the Comprehensive Diagnostic Profile reagent rotor (Abaxis, Union City, CA). The ALT, AST, and […] activities in the serum were quantitated by a colorimetric, enzymatic method using the Clinical Chemistry Analyzer Cobas c311 (Roche Diagnostics, Risch-Rotkreuz, Switzerland) as per the manufacturer’s instructions.

The next data set concerns mdx mice. Put plainly: Chronic treatment of mdx mice, CD68 immunostaining (macrophages). Format: in vivo, mouse. The note with it: for CD68+ cells, number of cells per myofiber: SR12343 30 mg/kg 4 wk, single measures and ave, 30 mg/kg. The method, then: To determine whether SR12343 and SR12460 improve muscle pathology, TA muscle was stained with hematoxylin–eosin to assess inflammatory infiltration, necrosis, central nucleation, and fibrosis. […] In addition, Masson trichrome stain was conducted to further measure muscle fibrosis. Chronic treatment with SR12343 reduced muscle fibrosis (blue) in diaphragm and TA muscle tissues in comparison to control group (Fig 8A & 8B). To further quantitate the extent of inflammation in mdx muscle tissues, diaphragm and TA muscle were immunostained for cluster of differentiation 68 (CD68), a macrophage marker. Treatment with SR12343 reduced the number of CD68^+ cells by almost 50% per myofiber in both diaphragm and TA tissues (Fig 8A & 8B). […] To quantify the average fiber size in an unbiased way, TA muscle was stained with laminin to outline myofibers, and Feret diameter of all myocytes was quantitated in a whole muscle section.
Fig 8 Chronic treatment with NBD mimetics reduces muscle fibrosis by decreasing macrophage infiltration in mdx mice. (A, B) Trichrome and CD68 staining of (A) diaphragm and (B) TA muscle from 7-wk-old, SR12343-treated or -untreated mdx mice. CD68 (red): marker of tissue macrophage; utrophin (green): stain for myofiber; DAPI (blue): nuclei. Trichrome images were taken at the magnification of 4× for TA and 10× for diaphragm. IHC images were taken at 10× for TA and 20× for diaphragm. Representative images were shown for each treatment group. Data were shown as mean +/− SEM. *P < 0.05; **P < 0.01; ***P < 0.001. Underlying data can be found in S1 Data. CD68, cluster of differentiation 68; IHC, immunohistochemistry; NBD, NEMO-binding domain; NEMO, NF-κB essential modulator; TA, tibialis anterior.
The frozen tissue sections were fixed with 4% paraformaldehyde for 1 h and incubated with 1% BSA for blocking. The primary antibodies CD68 (Abcam, Cambridge, MA) and utrophin (Santa Cruz) were applied at 1:200 for 2 h. The secondary antibodies Alexa Fluor 594 and Alexa Fluor 488 were then applied at 1:400 for 1 h. DAPI (1;1000) solution was used to stain the cell nucleus. All the processes were performed at room temperature.

Take `O=C(CNc1ccc(Cl)cn1)NCCc1cccc(Br)c1` [SR12343]: in data set [1], the Hematocrit came to 53.0 ± 1.5%, the Hemoglobin is recorded as 15.3 ± 0.4 g/dL, the Mean corpuscular hemoglobin was found to be 14.8 ± 0.2 pg and the “Mean corpuscular hemoglobin concentration” value was determined as 28.9 ± 0.2 g/dL. In data set [1], the Mean corpuscular volume is 51.2 ± 1.0 fL, the Mean platelet volume was 5.7 ± 0.8 fL, the Platelets is on record as 170.7 ± 64.0 K/μL and the Red blood cells amounted to 10.4 ± 0.3 M/μL. Moreover, in data set [1], the “Red cell distribution width” value is 15.0 ± 0.2% and the White blood cells is 7.4 ± 3.3 K/μL. Besides, the “CD68+ cells, number of cells per myofiber” value with mdx mice (Fig 8A, diaphragm muscle) is 1.156 and 1.07 and 1.196. For the same compound, the “CD68+ cells, number of cells per myofiber” value with mdx mice (Fig 8A, diaphragm muscle, mean) is listed as 1.14. Also, the “CD68+ cells, number of cells per myofiber” value in the data set with mdx mice (Fig 8B, TA muscle) was 0.646 and 0.5862 and 0.6154. The “CD68+ cells, number of cells per myofiber” value in the data set with mdx mice (Fig 8B, TA muscle, mean) stood at 0.6159. Besides, the “Reduction of number of CD68+ cells per myofiber” value in the data set on mdx mice (diaphragm and TA tissues) was roughly 50%.
